Source: patent US6383479B1, “Neutrophil-activating factor” (Novartis AG, priority 1987, dated 2002)

What was measured:
Assay type in all cases: cell-based
human neutrophils [1] = assay: elastase release from human neutrophils pretreated with cytochalasin B (NAF activity); settings: phosphocellulose fractions
From the text: Human monocytes are isolated from buffy coats of donor blood (Swiss Red Cross Laboratory, Bern, Switzerland) by centrifugation through a Ficoll-Paque gradient. This method separates neutrophils from the so-called mononuclear cells, a mixture of monocytes (about 20%) and lymphocytes (about 80%). Three monocyte preparations are used: (i) the total mononuclear cell fraction, (ii) monocytes enriched from the mononuclear cell fraction by adherence, and (iii) 90% pure monocytes separated from the lymphocytes by centrifugal elutriation (G. Garotta et al., Biochem. Biophys. Res. Comm. 140 [1986] 948-954 and K. J. Clemetson et al., J. Exp. Med. 161 [1985] 972-983). The cells are cultured in MEM-PPL and stimulated with increasing concentrations (0.1 ng to 1 μg/ml) of LPS. At different times, aliquots of the culture media are sampled and NAF activity is determined as the capacity to induce the release of elastase from human neutrophils pretreated with cytochalasin B (B. Dewald et al., Biochem. Pharmacol. 36 [1987] 2505-2510).
Mononuclear cells obtained from donor blood buffy coats as described in Example 1 are cultured in MEM-PPL for 48 h in the presence of 100 ng/ml LPS in stirred culture bottles (1.5 liter, 5×10^6 cells/ml). […] Absorbance at 280 nm is monitored continuously as a measure of protein. […]

human neutrophils [2] = assay: NAF-induced neutrophil chemotaxis (leading front migration); settings: for leading front migration: random migration 61 ± 5 μm
Experimental: (§1) Natural and recombinant NAF are tested in parallel on human neutrophils. They elicit virtually identical changes in cytosolic free Ca^2+, yielding a maximum rise at a concentration as low as 3 nM (FIG. 15). A nearly identical concentration-dependent respiratory burst response is obtained with both preparations in the range of 1 to 30 nM as assessed by chemiluminescence. The equivalence between natural and recombinant NAF is also reflected by chemotaxis and exocytosis measurements. Chemotactic migration is observed between 0.1 and 10 nM with a maximum effect at 1 nM. (Table 6). With either peptide a significant release of vitamin B12-binding protein from the specific granules at 0.3 nM and of beta-glucuronidase from the azurophil granules at 1 nM is observed.

human neutrophils [3] = assay: stimulus-dependent exocytosis of granule contents by human neutrophils
Experimental: Neutrophils (5×10^6/ml) suspended in PBS/BSA are preincubated with or without cytochalasin B (5 μg/ml) at 37° for 5 min.
Granule release is then initiated by adding the stimulus, e.g. NAF or a standard stimulus. The reaction is stopped 15 min later by rapid cooling in ice followed by centrifugation to sediment the cells. Vitamin B12-binding protein, β-glucuronidase and lactate dehydrogenase are determined in the cell-free media and cell pellets, and the release of these constituents is calculated in percent of the total cellular content (B. Dewalt and M. Baggiolini, Methods Enzymol. 132 [1986] 267).
as §1

human neutrophils [4] = assay: cytosolic free Ca2+ changes in quin-2 loaded human neutrophils; settings: as low as
Experimental: Upper graphs: cytosolic free Ca^2+ changes induced by natural (left) and recombinant (right) NAF. Neutrophils (4×10^6 cells/ml) are loaded with 0.1 nmol quin-2/AM and then stimulated with 3 nM NAF (mark). Quin-2 saturation changes calibrated as described in V. Von Tscharner et al., J. Biol. Chem. 261 (1986) 10163-10168.
as §1

Substance	elastase-releasing activity (human neutrophils [1])	concentration of maximum chemotactic effect (human neutrophils [2]) [nM]	leading front migration (human neutrophils [2]; NAF 0.1 nM) [μm]	leading front migration (human neutrophils [2]; NAF 1.0 nM) [μm]	leading front migration (human neutrophils [2]; NAF 10.0 nM) [μm]	concentration giving significant release of beta-glucuronidase from the azurophil granules (human neutrophils [3]) [nM]	concentration giving significant release of vitamin B12-binding protein from the specific granules (human neutrophils [3]) [nM]	concentration yielding a maximum rise in cytosolic free Ca2+ (human neutrophils [4]) [nM]
interleukin-1 [IL-1]	no elastase-releasing activity	–	–	–	–	–	–	–
natural NAF: NAF purified from culture fluid of LPS-stimulated human monocytes	–	1	98 ± 6	123 ± 6	127 ± 3	1	0.3	3
recombinant NAF: 72-amino-acid NAF obtained by recombinant DNA processes, expressed in E. coli	–	1	88 ± 6	124 ± 3	126 ± 4	1	0.3	3
